{"source": "patent US10766873B2", "about": "“Zuclopenthixol hydrochloride derivatives and Ebselen derivatives as ErbB2 inhibitors” (Centre National de la Recherche Scientifique (CNRS), priority 2016, dated 2020)", "key": {"V842I ErbB2": {"biological_target": "T1, V842I ErbB2 (Homo sapiens, UniProt P04626, V842I)", "T1 construct": "expressed in transfected cells; host or cells: HBMEC", "assay": "Western blot pY1248, V842I ErbB2 in transfected HBMECs", "type": "cell-based", "settings": "0, 5, 10 or 20 μM, 48 h", "protocol": "(§1) HBMECs cells were transfected with plasmids encoding WT, V777L or V842I and treated with 0, 5, 10 or 20 μM ZU or EB1 for 48 h. ErbB2 activation was then analyzed by western blot analysis using a phospho-ErbB2-specific antibody (pY1248) and a total ErbB2 antibody. Histograms show optical density quantification."}, "[1]": {"system": "human breast cancer BT474 cells", "assay": "BT474 orthotopic xenograft in mammary fat pad of mice", "type": "in vivo, NOD.Cg-Prkdc scid/J mice", "settings": "for tumor growth in vivo (in words): then once per day 3 days", "protocol": "5.10^6 BT474 cells were implanted orthotopically in the mammary fat pad of NOD.Cg-Prkdc scid/J mice, in the presence of estradiol supplement. After 4 weeks, mice were injected with ZU (N=10, 5 mg/kg per day for 5 days a week, followed by 3 mg/kg for 5 days a week during three weeks for N=6) or vehicle (N=10, 10% DMSO in PBS). Mice weight and tumor volume were measured 3 and 2 times a week respectively.\n5.10^6 BT474 cells were implanted orthotopically in the mammary fat pad of NOD.Cg-Prkdc scid/J mice, in the presence of estradiol supplement. Nineteen days after implantation, treatment began and mice were injected i.p. with […] ZU (5 mg/kg per day for 3 days a week, during three weeks for N=9), 4 mg/kg ZU (5 days a week during three weeks, N=8) or vehicle (N=9, 10% DMSO in PBS). Mice weight and tumor volume were measured 3 and 2 times a week respectively.\n5.10^6 BT474 cells were implanted orthotopically in the mammary fat pad of NOD.Cg-Prkdc scid/J mice, in the presence of estradiol supplement. After 4 weeks, mice were injected with EB1 3 mg/kg (N=8), 5 mg/kg (N=6) or vehicle (N=8, 10% DMSO in PBS) twice a day for 5 days a week (2×D), during 2 weeks then once per day (1×D) during 3 days. Mice weight and tumor volume were measured 3 and 2 times a week respectively."}, "MCF7": {"system": "MCF7", "assay": "MTT cell proliferation, MCF7", "type": "cell-based", "settings": "10 μM", "protocol": "We then analyzed the ability of ZU and EB1 and their derivatives to decrease the ErbB2-dependent cell proliferation.\nSKBR3, BT474, MCF-7, MDA-MB-231 and HBMEC cells were treated with the compounds as indicated, and cell proliferation was determined each day during 3 days using an MTT assay. Non treated cells were included as a negative control."}, "ErbB2": {"biological_target": "ErbB2 (Homo sapiens, UniProt P04626)", "assay": "ErbB2 activation in N87 cells, dot blot (4G10)", "type": "cell-based", "set-up": "endogenous in cells; host or cells: N87", "protocol": "The phosphotyrosine content in the ErbB2-overexpressing gastric cancer cell line N87 was analyzed by dot blot using an anti-phosphotyrosine antibody (clone 4G10). As in these cells, ErbB2 is the main phosphorylated protein, decreased in total phosphotyrosine content mainly reflected inhibition of ErbB2 activity. As a control, the non-specific ErbB2 kinase inhibitor AG1478 was used. Quantifications show the result of two independent experiments."}, "[2]": {"system": "EGFR/ErBB2 or ErbB3/ErbB2 heterodimers-dependent signalling pathways", "assay": "Ligand-dependent ErbB2 activation (EGF or HRG) in HBMECs, western blot", "type": "cell-based", "settings": "pre-treatment 1 h or 24 h", "protocol": "In physiological conditions, ErbB2 activation occurs in heterodimer with the other ErbB family members, such as the EGFR in response to EGF stimulation or ErbB3 in response to heregulin (HRG) stimulation. We therefore addressed whether ZU, EB1 and their derivatives also affected the ligand-dependent physiological ErbB2 activation.\n16 h-starved HBMECs cells were pre-treated or not for 1 h or 24 h with ZU, […] and their derivatives or AG1478 before EGF (50 ng/mL) or HRG1β (100 ng/mL) stimulation for 5 minutes. The activation of EGFR/ErBB2 or ErbB3/ErbB2 heterodimers-dependent signalling pathways was then analysed by western blot experiments using pAkt, Akt, pERK, ERK or 4G10 antibodies."}, "V777L ErbB2": {"biological_target": "T2, V777L ErbB2 (Homo sapiens, UniProt P04626, V777L)", "T2 construct": "expressed in transfected cells; host or cells: HBMEC", "assay": "Western blot pY1248, V777L ErbB2 in transfected HBMECs", "type": "cell-based", "settings": "0, 5, 10 or 20 μM, 48 h", "protocol": "as §1"}, "[3]": {"biological_target": "peptide encoding the juxtamembrane region of ERBB2 (Homo sapiens, UniProt P04626)", "assay": "Surface Plasmon Resonance, Biacore T200", "type": "binding", "from_the_text": "We analyzed the ability of ZU to directly bind to the juxtamembrane domain of ErbB2 using Surface Plasmon Resonance assays on a Biacore T200. For that, we compared the affinity of the compounds for a peptide containing the Ezrin binding motif […] of ErbB2 immobilized on sensorchips, which was reflected by the amplitude of the SPR response.\nCompound ZU and EB1 were validated for their interaction with peptide encoding the juxtamembrane region of ERBB2 using a Biacore T200 (IECB, Bordeaux). Biotinylated peptide encoding the juxtamembrane region of ERBB2 (biotin-[…]) has been immobilized on Streptavidin-coated sensor chips (Series S sensor chip SA, GE Healthcare). Compound ZU in PBS, 0.02% tween20 buffer was used as analyte, and the Ezrin FERM domain has been used as a positive control."}, "[4]": {"system": "V842I ErbB2-transfected cells", "assay": "MTT cell proliferation, V842I ErbB2-transfected HBMEC", "type": "cell-based", "settings": "day 3", "protocol": "The WT, V777L or V842I ErbB2-transfected cells were treated with 5 or 10 μM of ZU and cell proliferation was determined each day during 3 days using an MTT assay. Non transfected cells were included as a negative control.\nThe WT, V777L or V842I ErbB2-transfected cells were treated with 5 or 10 μM of EB1 and cell proliferation was determined each day during 3 days using an MTT assay. Non transfected cells were included as a negative control."}, "WT ErbB2": {"biological_target": "T3, WT ErbB2 (Homo sapiens, UniProt P04626)", "T3 construct": "expressed in transfected cells; host or cells: HBMEC", "assay": "Western blot pY1248, WT ErbB2 in transfected HBMECs", "type": "cell-based", "settings": "0, 5, 10 or 20 μM, 48 h", "protocol": "HBMECs cells were transfected with plasmids encoding WT, ΔEBM (a form of ErbB2 carrying mutations in the juxtamembrane domain and unable to bind to the Ezrin FERM domain), V659E or p95 ErbB2 and treated with 0, 5, 10 or 20 μM ZU for 24 h. ErbB2 activation was then analyzed by western blot analysis using a phospho-ErbB2-specific antibody (pY1248) and a tubulin antibody as a loading control. Histograms show optical density quantification.\nas §1"}}}
{"compound": "O=C1c2ccccc2[Se](=O)N1c1ccccc1", "note": "(stereo not drawn) [EB1, Ebselen oxide]", "values": [{"measurement": "ErbB2 V842I activation (in words)", "setting": "V842I ErbB2", "result": "potently decrease"}, {"measurement": "tumor growth in vivo (in words)", "setting": "[1]; 3 mg/kg twice a day 5 days a week 2 weeks", "result": "able to decrease the tumor growth"}, {"measurement": "tumor growth in vivo (in words)", "setting": "[1]; 5 mg/kg twice a day 5 days a week 2 weeks, tumor volume and tumor weight", "result": "more significant"}, {"measurement": "tolerability in mice, body weight (in words)", "setting": "[1]; 3 or 5 mg/kg", "result": "well tolerated"}, {"measurement": "effect on MCF7 proliferation (in words)", "setting": "MCF7", "result": "without any effect"}, {"measurement": "ErbB2 activation in N87 cell line (in words)", "setting": "ErbB2", "result": "potently decrease ErbB2 activation"}, {"measurement": "ligand-dependent ErbB2 activation induced by EGF or HRG stimulation (in words)", "setting": "[2]", "result": "absence of inhibition"}, {"measurement": "ErbB2 V777L activation (in words)", "setting": "V777L ErbB2", "result": "potently decrease"}, {"measurement": "binding to immobilized ErbB2 juxtamembrane peptide (SPR, in words)", "setting": "[3]", "result": "bound to the immobilized peptide"}, {"measurement": "decrease of the proliferation of V842I transfected HBMEC", "setting": "[4]; 5 μM", "result": 55, "unit": "%"}, {"measurement": "decrease of the proliferation of V842I transfected HBMEC", "setting": "[4]; 10 μM", "result": 90, "unit": "%"}, {"measurement": "ErbB2 WT activation (in words)", "setting": "WT ErbB2", "result": "potently decrease"}]}
